# Test results as given in patent US8476253B2, “Amide derivative” (Daiichi Sankyo Company, Limited, priority 2009, dated 2013).
# Structures can show the parent of a compound that is named as a salt.
# Assays:
# [1] = biological target: T1, substance P receptor (Cavia porcellus, UniProt P30547); experiment: Test for binding to guinea-pig substance P receptor (crude lung membrane sample); conditions: crude guinea-pig lung membrane sample, [3H]substance P; Ki from IC50 and Kd; read-out: Ki
# T1 construct: A preparation of a crude lung membrane sample was prepared; from tissue; host or cells: guinea-pig lung (crude membrane sample)
# Protocol: A preparation of a crude lung membrane sample was prepared, and a test for binding of a test substance to the sample was performed according to the method described in EP0336230A2.
# The binding effect of the test substance to a substance P receptor was calculated as an affinity (Ki) of the test substance for the substance P receptor from a 50% binding concentration (IC50) and an affinity (Kd) of [^3H]substance P for the substance P receptor.
# [2] = system: muscarine M3 receptor; experiment: Effect of suppressing methacholine-induced airway contraction (in vivo, intratracheal administration); parameters: species or system guinea pig; conditions: guinea pigs, intratracheal administration 60 minutes before 30 μg/kg i.v. methacholine; AUC of increase in airway pressure over 10 minutes
# In short: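 Anesthetized, gallamine-paralysed, ventilated male Hartley guinea pigs (350–550 g); compound in 5% glucose given intratracheally 60 min before 30 μg/kg i.v. methacholine. Airway pressure AUC over 10 min scored; ID50 from inhibition versus 5% glucose vehicle group.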
# [3] = biological target: T2, neurokinin NK2 receptor (Cavia porcellus, UniProt Q64077); experiment: Effect of suppressing neurokinin A-induced airway contraction (in vivo, intratracheal administration); parameters: species or system guinea pig; conditions: guinea pig; guinea pigs, intratracheal administration 60 minutes before 4 μg/kg i.v. NKA; AUC of increase in airway pressure over 10 minutes; read-out: ID50 (the source's name)
# T2 construct: Using healthy guinea pigs (body weight, 350 to 550 g; Hartley male guinea pigs); from tissue; host or cells: live anaesthetised Hartley male guinea pigs (airway, in vivo)
# T2 sequence (Q64077 1-402): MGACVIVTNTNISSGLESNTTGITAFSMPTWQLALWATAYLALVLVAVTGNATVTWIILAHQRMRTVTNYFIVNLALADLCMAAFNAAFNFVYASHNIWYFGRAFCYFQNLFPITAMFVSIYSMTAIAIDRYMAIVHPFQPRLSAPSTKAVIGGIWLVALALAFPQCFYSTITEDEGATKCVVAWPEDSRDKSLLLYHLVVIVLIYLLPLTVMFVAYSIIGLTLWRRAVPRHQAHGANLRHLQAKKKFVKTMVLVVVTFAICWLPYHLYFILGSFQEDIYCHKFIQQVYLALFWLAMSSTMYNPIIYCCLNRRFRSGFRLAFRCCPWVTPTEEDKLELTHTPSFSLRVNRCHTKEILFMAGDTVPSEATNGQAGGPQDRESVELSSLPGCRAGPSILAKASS
# In short: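 Anesthetized, gallamine-paralysed, ventilated male Hartley guinea pigs received compound in 5% glucose intratracheally 60 minutes before 4 μg/kg NKA i.v. AUC of airway pressure increase over 10 minutes gave inhibition versus vehicle controls, expressed as ID50.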
# T1 sequence (P30547 whole entry): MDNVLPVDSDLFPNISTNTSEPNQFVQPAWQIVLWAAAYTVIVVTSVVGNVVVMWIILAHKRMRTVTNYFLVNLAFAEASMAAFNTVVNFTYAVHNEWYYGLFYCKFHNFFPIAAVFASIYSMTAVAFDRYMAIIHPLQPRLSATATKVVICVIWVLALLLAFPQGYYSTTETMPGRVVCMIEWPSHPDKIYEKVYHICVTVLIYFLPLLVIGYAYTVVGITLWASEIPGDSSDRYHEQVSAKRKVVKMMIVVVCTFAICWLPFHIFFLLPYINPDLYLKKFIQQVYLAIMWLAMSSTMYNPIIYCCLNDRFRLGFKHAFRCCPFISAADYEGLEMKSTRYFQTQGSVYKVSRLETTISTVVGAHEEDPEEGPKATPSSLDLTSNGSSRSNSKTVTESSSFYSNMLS
structure (smiles),measurement,setting,value
"CN(CCN1CCC(OC(=O)Nc2ccccc2-c2ccccc2)CC1)C(=O)CCCN(C)c1ccc(C(=O)N(C)CCCN(C)C(=O)CO[C@H]2Cc3ccccc3C23CCN(CC[C@@]2(c4ccc(F)cc4)CN(C(=O)c4cc(C(F)(F)F)cc(C(F)(F)F)c4)CO2)CC3)cc1 [Example 36, 1-{2-[{4-[{4-[{3-[({[(2S)-1′-{2-[(5R)-3-[3,5-Bis(trifluoromethyl)benzoyl]-5-(4-fluorophenyl)-1,3-oxazolidin-5-yl]ethyl}-2,3-dihydrospiro[indene-1,4′-piperidin]-2-yl]oxy}acetyl)(methyl)amino]propyl}(methyl)carbamoyl]phenyl}(methyl)amino]butanoyl}(methyl)amino]ethyl}piperidin-4-yl biphenyl-2-ylcarbamate trihydrochloride]",Ki,[1],1.4 nM
same,ID50,[2],0.0146 mg/kg
same,ED50,[3],0.0168 mg/kg
